Laboratory results taken from patent publication US20130164337A1, “ANTIMICROBIAL ACTION PHARMACEUTICAL COMPOSITION FOR PARENTERAL ADMINISTRATION AND ITS PRODUCTION PROCESS” (priority 2010, published 2013).

Assays:
Assay in all cases: Experimental sepsis model in mice, survival on the 7th day
Format in all cases: in vivo
[1] = test system: Pseudomonas aeruginosa (ATCC 27853 F-51); settings: Pseudomonas aeruginosa 5×10^8 CFU/mouse; 100 mg/kg intravenous daily during 3 days; hybrid mice (CBA×C57Black/6)CBF1
Source text: (§1) To determine therapeutic efficiency of betalactam and their pharmaceutical compositions including BHSiO2, we used experimental sepsis models and a statistical processing method of the received data (χ^2) according to [22, 23].
(§2) Microorganisms: Staphylococcus aureus (ATCC ? 25923 F-49), Escherichia coli (ATCC ? 25922 F-50), Pseudomonas aeruginosa (ATCC ? 27853 F-51).
(§3) Animals: for the experiments we used hybrid mice (CBA×C57Black/6)CBF1 according to the “Regulations for test animals use” (USSR Ministry of health order supplement ? 755 from 12.08. 1977).
(§4) The mice have been injected 0.8 ml of Pseudomonas aeruginosa daily culture suspension with a dosage 5×10^8 CFU/mouse or Staphylococcus aureus daily culture suspension with a dosage of 10^10 CFU/mouse or Escherichia coli daily culture suspension with a dosage of 8×10^8 CFU/mouse.
(§5) The control group has been injected with 0.8 ml of normal saline solution (0.9% sodium chloride solution). In a day after being infected the test mice have been daily (during 3 days) intravenous injected with 100 mg/kg of antibiotics or different pharmaceutical compositions (antibiotic/BHSiO2) watered down with 0.25 ml of normal saline solution. The control group of mice has been injected using the same scheme with normal saline solution […].
(§6) Antibacterial therapy efficiency was evaluated basing on the quantity of the surviving animals on the 7th day after being infected.
(§7) The obtained data shown in Table ? 3 reflect the results of 3 independent experiments (for each preparation research were used not less than 30 test animals in total).

[2] = test system: Escherichia coli (ATCC 25922 F-50); settings: Escherichia coli 8×10^8 CFU/mouse; 100 mg/kg intravenous daily during 3 days; hybrid mice (CBA×C57Black/6)CBF1
Source text: as §1, §2, §3, §4, §5, §6, §7

[3] = test system: Staphylococcus aureus (ATCC 25923 F-49); settings: Staphylococcus aureus 10^10 CFU/mouse; 100 mg/kg intravenous daily during 3 days; hybrid mice (CBA×C57Black/6)CBF1
Source text: as §1, §2, §3, §4, §5, §6, §7

Structure (SMILES)	Mice survival rate on the 7th day of infection [1]	Mice survival rate on the 7th day of infection [2]	Mice survival rate on the 7th day of infection [3]
CC(C)(O/N=C(\C(=O)N[C@@H]1C(=O)N2C(C(=O)[O-])=C(C[n+]3ccccc3)CS[C@H]12)c1csc(N)n1)C(=O)O [Ceftazidime]	43.3% (13/30)	38.7% (15/31)	–
C[C@@H](O)[C@H]1C(=O)N2C(C(=O)O)=C(S[C@@H]3CN[C@H](C(=O)N(C)C)C3)[C@H](C)[C@H]12 [Meropenem]	73.8% (31/42)	78.0% (32/41)	73.3% (22/30)
Cc1nnc(SCC2=C(C(=O)O)N3C(=O)[C@@H](NC(=O)Cn4cnnn4)[C@H]3SC2)s1 [Cefazolin]	–	–	37.5% (12/32)
C[C@H]1[C@H](NC(=O)/C(=N\OC(C)(C)C(=O)O)c2csc(N)n2)C(=O)N1S(=O)(=O)O [Aztreonam]	74.4% (32/43)	77.5% (31/40)	–
CO[C@@]1(NC(=O)Cc2cccs2)C(=O)N2C(C(=O)O)=C(COC(N)=O)CS[C@@H]21 [Cefoxitin]	–	46.7% (14/30)	35.2% (15/34)
CC1(C)S[C@@H]2[C@H](NC(=O)C(C(=O)O)c3ccccc3)C(=O)N2[C@H]1C(=O)O (stereo partly drawn) [Carbenicillin]	43.3% (13/30)	43.3% (13/30)	46.7% (14/30)
CO/N=C(\C(=O)N[C@@H]1C(=O)N2C(C(=O)O)=C(COC(N)=O)CS[C@H]12)c1ccco1 [Cefuroxime]	–	43.7% (14/32)	40.0% (14/35)
CCN1CCN(C(=O)N[C@@H](C(=O)N[C@@H]2C(=O)N3C(C(=O)O)=C(CSc4nnnn4C)CS[C@H]23)c2ccc(O)cc2)C(=O)C1=O [Cefoperazone]	40.0% (12/30)	45.2% (14/31)	–
CO/N=C(\C(=O)N[C@@H]1C(=O)N2C(C(=O)O)=C(COC(C)=O)CS[C@H]12)c1csc(N)n1 [Cefotaxime]	–	43.3% (13/30)	40.0% (12/30)
CO/N=C(\C(=O)N[C@@H]1C(=O)N2C(C(=O)[O-])=C(C[N+]3(C)CCCC3)CS[C@H]12)c1csc(N)n1 [Cefepime]	46.7% (14/30)	43.7% (14/32)	46.7% (14/30)
CO/N=C(\C(=O)N[C@@H]1C(=O)N2C(C(=O)O)=C(CSc3nc(=O)c(=O)[nH]n3C)CS[C@H]12)c1csc(N)n1 [Ceftriaxone]	–	41.9% (13/31)	46.7% (14/30)
